Among the data in patent publication US8802678B2, “Carbonylated (aza) cyclohexanes as dopamine D3 receptor ligands” (Bioprojet, priority 2006, dated 2014) are melting point values, retold here.

The melting point is the temperature of the solid-liquid transition. `CCc1cccc(N2CCN(CC[C@H]3CC[C@H](NC(=O)CCCOC)CC3)CC2)c1` [Example 560, N-(4-{2-[4-(3-Ethylphenyl)piperazin-1-yl]ethyl}cyclohexyl)-4-methoxybutanamide]: the melting point worked out at 130 °C. In the case of `CCc1cccc(N2CCN(CC[C@H]3CC[C@H](NC(=O)C4=CCCCO4)CC3)CC2)c1` [Example 561, 5,6-Dihydro-4H-pyran-2-carboxylic acid (4-{2-[4-(3-ethylphenyl)piperazin-1-yl]ethyl}cyclohexyl) amide], the melting point came to 135 °C. The figure for `O=C(N[C@H]1CC[C@H](CCN2CCN(c3cccc(C(F)(F)F)c3)CC2)CC1)C1=CCCCO1` [Example 562, 5,6-Dihydro-4H-pyran-2-carboxylic acid (4-{2-[4-(3-trifluoromethylphenyl)piperazin-1-yl]ethyl}cyclohexyl) amide] is 142 °C; for `CCOCC(=O)N[C@H]1CC[C@H](CCN2CCN(c3cccc(CC)c3)CC2)CC1` [Example 563, 2-Ethoxy-N-(4-{2-[4-(3-ethylphenyl)piperazin-1-yl]ethyl}cyclohexyl)acetamide] it is 100 °C. Regarding `O=C(N[C@H]1CC[C@H](CCN2CCN(c3cccc(C(F)(F)F)c3)CC2)CC1)C1=COCC1` [Example 564, 4,5-Dihydrofuran-3-carboxylic acid (4-{2-[4-(3-trifluoromethylphenyl)piperazin-1-yl]ethyl}cyclohexyl) amide], the melting point turned out to be 175 °C. The figure for `O=C(N[C@H]1CC[C@H](CCN2CCN(c3ccc(F)cc3F)CC2)CC1)C1=CCCCO1` [Example 565, 5,6-Dihydro-4H-pyran-2-carboxylic acid (4-{2-[4-(2,4-difluorophenyl)piperazin-1-yl]ethyl}cyclohexyl) amide] is 160 °C.

In turn, `CCC(O)c1cccc(N2CCN(CC[C@H]3CC[C@H](NC(=O)CC#N)CC3)CC2)c1` (stereo partly shown) [Example 566, 2-cyano-N-[4-(2-{4-[3-(1-hydroxypropyl)phenyl]piperazin-1-yl}ethyl)cyclohexyl]acetamide] came in with a melting point of 157 °C.

`COCCCC(=O)N[C@H]1CC[C@H](CCN2CCN(c3cc(F)c(F)c(F)c3)CC2)CC1` [Example 568, 4-Methoxy-N-(4-{2-[4-(3,4,5-trifluorophenyl)piperazin-1-yl]ethyl}cyclohexyl)butanamide] showed a melting point of 194 °C. With `COc1ccc(N2CCN(CC[C@H]3CC[C@H](NC(=O)C4=CCCC4)CC3)CC2)cc1` [Example 571, Cyclopent-1-enecarboxylic acid (4-{2-[4-(4-methoxyphenyl)-piperazin-1-yl]ethyl}cyclohexyl) amide], the melting point worked out at 205 °C. The figure for `CCOCC(=O)N[C@H]1CC[C@H](CCN2CCN(c3ccc(OC)cc3)CC2)CC1` [Example 572, 2-Ethoxy-N-(4-{2-[4-(4-methoxyphenyl)piperazin-1-yl]ethyl}cyclohexyl)acetamide] is 132 °C; for `COc1ccc(N2CCN(CC[C@H]3CC[C@H](NC(=O)CC#N)CC3)CC2)cc1` [Example 573, 2-Cyano-N-(4-{2-[4-(4-methoxyphenyl)piperazin-1-yl]ethyl}cyclohexyl)acetamide] it is 227 °C. For `N#CCC(=O)N[C@H]1CC[C@H](CCN2CCN(c3cc(F)c(C(F)(F)F)c(F)c3)CC2)CC1` [Example 574, 2-Cyano-N-(4-{2-[4-(3,5-difluoro-4-trifluoromethylphenyl)piperazin-1-yl]ethyl}cyclohexyl) acetamide] the value was 231 °C.

`CC(C)C(O)c1cccc(N2CCN(CC[C@H]3CC[C@H](NC(=O)CC#N)CC3)CC2)c1` (stereo partly shown) [Example 575, 2-cyano-N-[4-(2-{4-[3-(1-hydroxy-2-methylpropyl)phenyl]piperazin-1-yl}ethyl)cyclohexyl]acetamide]: the melting point was 119 °C. The figure for `CC(=O)CN1CCC(CCN2CCN(c3ccc4c(c3)CCCC4)CC2)CC1` [Example 576] is 75 °C; for `CCOCC(=O)N[C@H]1CC[C@H](CCN2CCN(c3cc(C)cc(Cl)c3)CC2)CC1` [Example 577, N-(4-{2-[4-(3-Chloro-5-methylphenyl)piperazin-1-yl]ethyl}cyclohexyl)-2-ethoxyacetamide] it is 100 °C.

The molecule `COCCCC(=O)N[C@H]1CC[C@H](CCN2CCN(c3cc(C)cc(Cl)c3)CC2)CC1` [Example 578, N-(4-{2-[4-(3-Chloro-5-methylphenyl)piperazin-1-yl]ethyl}cyclohexyl)-4-methoxybutanamide] returned a melting point of 167 °C. As to `CCOCC(=O)N[C@H]1CC[C@H](CCN2CCN(c3cc(C)c(F)cc3Cl)CC2)CC1` [Example 579, N-(4-{2-[4-(2-Chloro-4-fluoro-5-methylphenyl)piperazin-1-yl]ethyl}cyclohexyl)-2-ethoxyacetamide], the melting point amounted to 132 °C.

`COCCCC(=O)N[C@H]1CC[C@H](CCN2CCN(c3cc(C)c(F)cc3Cl)CC2)CC1` [Example 580, N-(4-{2-[4-(2-Chloro-4-fluoro-5-methylphenyl)piperazin-1-yl]ethyl}cyclohexyl)-4-methoxybutanamide] yielded a melting point of 171 °C. `CC(=O)CN1CCC(CCN2CCN(c3cc(F)cc(Cl)c3)CC2)CC1` [Example 581, 1-(4-{2-[4-(3-Chloro-5-fluorophenyl)piperazin-1-yl]ethyl}piperidin-1-yl)propan-2-one]: the melting point is 107 °C. For `COc1ccc(N2CCN(CC[C@H]3CC[C@H](NC(=O)CCCC#N)CC3)CC2)cc1` [Example 582, 4-Cyano-N-(4-{2-[4-(4-methoxyphenyl)piperazin-1-yl]ethyl}cyclohexyl)butanamide] the value was 200 °C; for `CC(=O)CN1CCC(CCN2CCN(c3ccc4c(c3)OCO4)CC2)CC1` [Example 584, 1-{4-[2-(4-Benzo[1,3]dioxol-5-ylpiperazin-1-yl)ethyl]piperidin-1-yl}propan-2-one], 113 °C; for `N#CCC(=O)N[C@H]1CC[C@@H](CCN2CCN(c3cc(C(F)(F)F)ccc3F)CC2)CC1` [Example 586, 2-Cyano-N-(4-{2-[4-(2-fluoro-5-trifluoromethylphenyl)piperazin-1-yl]ethyl}cyclohexyl)acetamide], 152 °C. `CC(=O)CN1CCC(CCN2CCN(c3ccc(C(F)(F)F)cc3)CC2)CC1` [Example 587, 1-(4-{2-[4-(4-Trifluoromethylphenyl)piperazin-1-yl]ethyl}pipericin-1-yl)propan-2-one] showed a melting point of 104 °C. In the case of `CC(=O)CN1CCC(CCN2CCN(c3ccc(F)c(Cl)c3)CC2)CC1` [Example 592, 1-(4-{2-[4-(3-Chloro-4-fluorophenyl)piperazin-1-yl]ethyl}piperidin-1-yl)propan-2-one], the melting point was 92 °C. The figure for `N#CCC(=O)N[C@H]1CC[C@H](CCN2CCN(c3ccc(F)c(Cl)c3)CC2)CC1` [Example 594, N-(4-{2-[4-(3-Chloro-4-fluorophenyl)piperazin-1-yl]ethyl}cyclohexyl)-2-cyanoacetamide] is 176 °C; for `N#CCCCC(=O)N[C@H]1CC[C@H](CCN2CCN(c3ccc(F)c(Cl)c3)CC2)CC1` [Example 598, N-(4-{2-[4-(3-Chloro-4-fluorophenyl)piperazin-1-yl]ethyl}cyclohexyl)-4-cyanobutanamide] it is 142 °C. The figure for `N#CCC(=O)N[C@H]1CC[C@H](CCN2CCN(c3cc(C#N)ccc3Cl)CC2)CC1` [Example 599, N-(4-{2-[4-(2-Chloro-5-cyanophenyl)piperazin-1-yl]ethyl}cyclohexyl)-2-cyanoacetamide] is 225 °C; for `N#CCCCC(=O)N[C@H]1CC[C@H](CCN2CCN(c3cc(C#N)ccc3Cl)CC2)CC1` [Example 601, N-(4-{2-[4-(2-Chloro-5-cyanophenyl)piperazin-1-yl]ethyl}cyclohexyl)-4-cyanobutanamide] it is 206 °C; for `NC(=O)CCC(=O)N[C@H]1CC[C@H](CCN2CCN(c3ccc(F)c(Cl)c3F)CC2)CC1` [Example 602, N-(4-{2-[4-(3-Chloro-2,4-difluorophenyl)piperazin-1-yl]ethyl}cyclohexyl)succinamide] it is 257 °C. For `CC(=O)CN1CCC(CCN2CCN(c3cccc(C(C)=O)c3)CC2)CC1` [Example 603, 1-(4-{2-[4-(3-Acetylphenyl)-piperazin-1-yl]ethyl}piperidin-1-yl)propan-2-one] the value was 85 °C; for `CCC(=O)c1cccc(N2CCN(CCC3CCN(CC(C)=O)CC3)CC2)c1` [Example 604, 1-[3-(4-{2-[1-(2-Oxopropyl)piperidin-4-yl]ethyl}piperazin-1-yl)phenyl]propan-1-one], 68 °C; for `CC(=O)CN1CCC(CCN2CCN(c3cccc(C(C)O)c3)CC2)CC1` (stereo not shown) [Example 606, 1-[4-(2-{4-[3-(1-Hydroxyethyl)phenyl]piperazin-1-yl}ethyl)piperidin-1-yl]propan-2-one], 97 °C. On to `CCC(O)c1cccc(N2CCN(CCC3CCN(CC(C)=O)CC3)CC2)c1` (stereo not shown) [Example 607, 1-[4-(2-{4-[3-(1-Hydroxypropyl)phenyl]piperazin-1-yl}ethyl)piperidin-1-yl]propan-2-one], for which the melting point came to 83 °C. The figure for `CC(=O)CN1CCC(CCN2CCN(c3cccc(C(O)C(C)C)c3)CC2)CC1` (stereo not shown) [Example 608, 1-[4-(2-{4-[3-(1-Hydroxy-2-methylpropyl)phenyl]piperazin-1-yl}ethyl)piperidin-1-yl]propan-2-one] is 78 °C; for `N#CCC(=O)N[C@H]1CC[C@@H](CCN2CCN(c3ccc(C(F)(F)F)cc3)CC2)CC1` [Example 613, 2-Cyano-N-(4-{2-[4-(4-trifluoromethylphenyl)piperazin-1-yl]ethyl}cyclohexyl)acetamide] it is 156 °C. For `COCCCC(=O)N[C@H]1CC[C@H](CCN2CCN(c3cc(C(F)(F)F)ccc3F)CC2)CC1` [Example 616, N-(4-{2-[4-(2-Fluoro-5-trifluoromethylphenyl)piperazin-1-yl]ethyl}cyclohexyl)-4-methoxybutanamide] the value was 177 °C. For `CC(=O)CN1CCC(CCN2CCN(c3ccc(C)c(Cl)c3)CC2)CC1` [Example 618, 1-(4-{2-[4-(3-Chloro-4-methylphenyl)piperazin-1-yl]ethyl}piperidin-1-yl)propan-2-one] the value was 103 °C.
